Results as given in ChEMBL document CHEMBL1141817, “A novel extracellular diterpenoid with antibacterial activity from the cyanobacterium Nostoc commune” (1999).
≈ marks a conversion by molar mass, not a printed value.

How the values were obtained:
Format in all cases: functional
[1] = system: Staphylococcus epidermidis; assay: Antibacterial activity against Staphylococcus epidermidis ATCC 12228
Bacillus cereus = assay: Antibacterial activity against Bacillus cereus ATCC 10702
Escherichia coli = assay: Antibacterial activity against Escherichia coli ATCC 25922

Compound	MIC [1] [mg/L]	MIC (Bacillus cereus) [mg/L]	MIC (Escherichia coli) [mg/L]
O=C(N[C@H](CO)[C@H](O)c1ccc([N+](=O)[O-])cc1)C(Cl)Cl [CHLORAMPHENICOL]	4 (≈ 12.4 µM)	8 (≈ 24.8 µM)	64 (≈ 198 µM)
C[C@@H]1CC=C2[C@@H](CC[C@H]3C(C)(C)[C@H](O)CC[C@@]23C)[C@]1(C)Cc1cc(C(=O)O)ccc1O [NOSCOMIN]	8 (≈ 18.8 µM)	32 (≈ 75 µM)	128 (≈ 300 µM)
